Broadly, the Ki is the equilibrium dissociation constant of an inhibitor or competing ligand from its target.

In this test the target is Cannabinoid receptor 1 (Mus musculus, UniProt P47746). Nature of the test: CB1 receptor binding assay. From the text:
Mouse brain membranes were used as the source material for CB1 receptors. […] Briefly.

Cannabinoid receptor 1, sequence (P47746 whole entry): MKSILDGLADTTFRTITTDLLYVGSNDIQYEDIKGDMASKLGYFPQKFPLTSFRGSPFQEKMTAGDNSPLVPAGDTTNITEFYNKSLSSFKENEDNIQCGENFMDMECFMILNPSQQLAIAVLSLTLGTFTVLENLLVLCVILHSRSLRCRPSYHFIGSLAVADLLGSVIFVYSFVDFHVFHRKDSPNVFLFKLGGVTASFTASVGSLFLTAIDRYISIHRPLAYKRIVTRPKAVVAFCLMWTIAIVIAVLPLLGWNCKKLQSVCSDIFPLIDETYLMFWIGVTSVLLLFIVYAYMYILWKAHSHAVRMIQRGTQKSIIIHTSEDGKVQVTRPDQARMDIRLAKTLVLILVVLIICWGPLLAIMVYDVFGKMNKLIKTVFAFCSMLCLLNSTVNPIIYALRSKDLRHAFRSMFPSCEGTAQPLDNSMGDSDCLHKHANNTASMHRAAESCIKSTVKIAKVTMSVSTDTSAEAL

`O=S(=O)(NC1CCCOc2c1nn(-c1ccccc1Cl)c2-c1ccc(Cl)cc1)c1ccc(Cl)cc1` (stereo unspecified) [US20240189287, Compound BNS808] gave an inhibition constant (Ki) of 0.6 nM.

Values taken from BindingDB's records for patent US20240189287 (Bionanosim (Bns, 2024).
